Here are results for nine compounds from patent US10556907B2 (AbbVie Inc., priority 2015, dated 2020).

The conditions of test [1]: in vivo; cited from earlier work.
For test [2], the target named is T1, human EDG3 (S1PR3) receptor (Homo sapiens, UniProt Q99500).
T1 construct: expressed in transfected cells; host or cells: CHO (cell pool CHO-A2-S1P3 Mix)
The experiment in a line: Method 2: Aequorin assay, cell pool CHO-A2-S1P3 Mix. Format: cell-based. To be noted: (2): determined with method 2. How it is done:
(§1) Agonistic activity was measured using two different methods, described below.
(§2) Genetically Engineered Cells
(§3) Cell clone CHO-A21-Edg1 #17 carries the transgenes human EDG1 (S1PR1) receptor (Accession number NP_001391.2), mitochondrially targeted Aequorin (active part corresponds to accession number 1SL8_A) and chimaeric Gaqi5=Gaq modified with the 5 C-terminal amino-acids replaced with those of the Gai protein (DCGLF). CHO-A2-S1P3 Mix is a cell pool ectopically expressing human EDG3 (S1PR3) receptor (Accession number NP_005217.2) mitochondrially targeted Aequorin (active part has a sequence similar to accession number AY601106.1) and GNA16 (Accession number NP_002059.3). Cell clone CHO-A21-EDG8 #12 carries the transgenes human EDG8 (S1PR5) receptor (Accession number NP_110387.1), mitochondrially expressed Aequorin (active part corresponds to accession number 1SL8_A) and chimaeric Gaqi5 (Gaq modified to present the 5 last amino-acids of the Gai protein “DCGLF”; see above). Cells are grown to mid-log phase in culture medium (HAM's F12, 10% FBS, 100 IU/mL penicillin, 100 μg/mL streptomycin, 250 μg/mL Zeocin, 400 μg/mL G418). 18 hours prior to frozen cells preparation, the medium is changed to remove the antibiotics.
(§4) 18 hours prior to the test, vials of frozen cells are quickly thawed in a 37° C. water bath, cells are recovered by centrifugation and resuspended in assay buffer (DMEM/HAM's F12 with HEPES, without phenol red+0.1% fatty acid-free BSA). Cells are gently agitated in suspension overnight at RT in presence of 5 μM of Coelenterazine h (Molecular Probes). On the day of the test, cells are diluted to their final working concentrations in assay buffer and agitated in suspension for 1 h at RT. Cells are then placed in the luminescence reader (Hamamatsu Functional Drug Screening System 6000, FDSS6000). During cells incubation, compounds are prepared in 100% DMSO, and subsequently diluted in assay buffer. Compounds are then dispensed in the assay plate (black, clear-bottom, 384-well plate). After binding of agonists to the human S1P receptor the intracellular calcium concentration increases and binding of calcium to the Aequorin/Coelenterazine complex leads to an oxidation reaction of coelenterazine, which results in the production of […], coelenteramide, CO2 and light (Dmax 469 nm). The luminescent response is dependent on the agonist concentration. For agonist testing, 30 μL of cell suspension are injected on 30 μL of test compound or reference agonist in the assay plate. The resulting emission of light is recorded for 90 seconds using the FDSS6000. Dose response curves with the reference compounds are performed before testing the compounds. S1P is the reference agonist and JTE-013 the reference antagonist for S1P2. […]
(§5) Luminescence data are integrated over the reading interval for agonist and antagonist modes. To standardize the emission of recorded light (determination of the “100% signal”) across plates and across different experiments, some of the wells contain 100 μM digitonin or a saturating concentration of ATP (20 μM). Plates also contain the reference agonist at a concentration equivalent to the EC80 obtained during the test validation and the EC100. Dose-response data from test compounds were analyzed with XLfit (IDBS) software using nonlinear regression applied to a sigmoidal dose-response model and the following equation: • XL Fit fit Model 203: 4 Parameter Logistic Model • A: Bottom • B: TOP • C: LogEC50 • D: Hill fit=(A+((B−A)/(1+(((10^C)/x)^D)))) inv=((10^C)/((((B−A)/(y−A))−1)^(1/D))) res=(y−fit)

The target of another test is T2, human S1PR4 receptor (Homo sapiens, UniProt O95977).
T2 construct: host or cells: CHO-K1
T2 sequence (O95977 1-384): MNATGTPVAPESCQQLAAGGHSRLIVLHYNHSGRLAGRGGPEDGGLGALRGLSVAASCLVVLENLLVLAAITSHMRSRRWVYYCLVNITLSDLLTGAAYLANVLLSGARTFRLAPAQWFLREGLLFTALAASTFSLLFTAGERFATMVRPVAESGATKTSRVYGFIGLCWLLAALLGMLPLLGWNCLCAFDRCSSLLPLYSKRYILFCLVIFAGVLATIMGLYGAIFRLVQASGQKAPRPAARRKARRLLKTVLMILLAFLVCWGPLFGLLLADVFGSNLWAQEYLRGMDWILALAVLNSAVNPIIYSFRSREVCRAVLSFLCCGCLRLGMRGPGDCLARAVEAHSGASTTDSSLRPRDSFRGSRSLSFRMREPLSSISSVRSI
The experiment in a line: Method 1: intracellular Ca2+ release (FLIPR, Calcium 5) in recombinant CHO-K1 cells. Format: cell-based. As to conditions: (1): determined with method 1; read-out: S1P4 EC50. The procedure, abridged:
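Agonist EC50; CHO-K1 + Gq/i5 + aequorin; Calcium 5 dye 1 h 37 °C, 45 min RT; serial-dilution compound add; FLIPR read; normalized to phospho-fingolimod.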

In test [3] the target is T3, human EDG8 (S1PR5) receptor (Homo sapiens, UniProt Q9H228).
T3 construct: expressed in transfected cells; host or cells: CHO (clone CHO-A21-EDG8 #12)
T3 sequence (Q9H228 whole entry): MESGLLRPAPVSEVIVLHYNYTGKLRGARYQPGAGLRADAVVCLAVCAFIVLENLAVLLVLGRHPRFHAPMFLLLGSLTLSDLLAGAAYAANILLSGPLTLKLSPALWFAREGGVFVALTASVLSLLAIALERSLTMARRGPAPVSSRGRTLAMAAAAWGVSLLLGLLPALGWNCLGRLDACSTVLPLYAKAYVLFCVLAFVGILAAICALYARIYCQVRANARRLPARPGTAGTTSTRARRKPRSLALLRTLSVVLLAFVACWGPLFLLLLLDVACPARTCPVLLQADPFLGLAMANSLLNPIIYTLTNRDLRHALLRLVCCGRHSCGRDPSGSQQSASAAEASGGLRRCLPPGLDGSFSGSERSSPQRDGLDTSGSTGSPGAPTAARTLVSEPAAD
The test is described as follows: Method 2: Aequorin assay, cell clone CHO-A21-EDG8 #12. As to conditions: agonist potency, determined with method 2 (symbols E-G); read-out: S1P5 EC50 range. It is filed as cell-based. How it is done:
as §1, §2, §3, §4, §5

The target in test [4] is T4, human EDG1 (S1PR1) receptor (Homo sapiens, UniProt P21453).
T4 construct: expressed in transfected cells; host or cells: CHO (clone CHO-A21-Edg1 #17)
T4 sequence (P21453 whole entry): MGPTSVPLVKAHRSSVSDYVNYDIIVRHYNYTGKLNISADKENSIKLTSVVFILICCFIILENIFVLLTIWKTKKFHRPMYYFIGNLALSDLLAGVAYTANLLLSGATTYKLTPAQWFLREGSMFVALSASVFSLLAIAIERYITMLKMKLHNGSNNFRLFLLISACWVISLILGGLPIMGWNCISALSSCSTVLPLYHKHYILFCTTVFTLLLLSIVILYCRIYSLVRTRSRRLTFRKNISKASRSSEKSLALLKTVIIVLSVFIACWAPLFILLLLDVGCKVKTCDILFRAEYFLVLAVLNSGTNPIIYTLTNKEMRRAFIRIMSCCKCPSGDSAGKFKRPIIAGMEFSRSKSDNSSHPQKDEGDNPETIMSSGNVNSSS
The test is described as follows: Method 2: Aequorin assay, cell clone CHO-A21-Edg1 #17. It is filed as cell-based. To be noted: (2): determined with method 2; read-out: S1P1 EC50. The procedure:
as §1, §2, §3, §4, §5

The conditions of test [5]: in vivo; cited from earlier work. The source holds these as a separate data set.
Another test deals with monocytes. As to conditions: cited from earlier work.

Some results are limits rather than exact numbers.

T1 sequence (Q99500 whole entry): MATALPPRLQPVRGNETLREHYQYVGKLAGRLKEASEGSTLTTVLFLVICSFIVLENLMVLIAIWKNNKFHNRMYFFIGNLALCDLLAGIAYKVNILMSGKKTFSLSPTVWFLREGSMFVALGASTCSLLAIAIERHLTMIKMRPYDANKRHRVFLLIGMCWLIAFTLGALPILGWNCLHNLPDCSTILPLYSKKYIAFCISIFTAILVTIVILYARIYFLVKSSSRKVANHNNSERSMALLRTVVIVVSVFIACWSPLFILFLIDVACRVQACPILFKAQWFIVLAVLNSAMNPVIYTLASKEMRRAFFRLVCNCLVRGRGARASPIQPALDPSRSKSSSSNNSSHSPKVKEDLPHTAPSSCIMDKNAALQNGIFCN

`FC(F)(F)c1cccc(-c2noc(-c3cc(-c4ccccc4)c(C(F)(F)F)s3)n2)c1` [SEW2817]: the “nociceptive behavior in neuropathic pain models” value in test [1] is “fails to have an effect”.

As usually defined, the EC50 is the concentration that produces a half-maximal response. Take `O=C(O)C1CC(N2CCc3nc(-c4ccc(OCc5cccc(F)c5)cc4)ncc3C2)C1` (centres unmarked) [Compound 52, 3-(2-(4-((3-fluorobenzyl)oxy)phenyl)-7,8-dihydropyrido[4,3-d]pyrimidin-6(5H)-yl)cyclobutanecarboxylic acid]: the EC50 in test [2] is more than 1000 nM; on human S1PR4 receptor, more than 1000 nM; in test [3], 1000 to 10000 nM; in test [4], more than 1000 nM.

`CCCCCCCCc1ccc(CCC(N)(CO)CO)cc1` [FTY720/FIngolimod]: the “nociceptive behavior in neuropathic pain models” value in test [1] is given as “able to reduce nociceptive behavior”. Moreover, the Aβ-induced memory deficits result in test [5] is recorded as “able to modulate Aβ-induced memory deficits”. Moreover, the “Aβ-induced migration of monocytes to sites of injury” value with monocytes is listed as “inhibits such migration”.

With `CC(CN1CCc2nc(-c3ccc(OCc4c(Cl)cccc4Cl)cc3)ncc2C1)C(=O)O` (centres unmarked) [Compound 7, 3-(2-(4-(2,6-dichlorobenzyloxy)phenyl)-7,8-dihydropyrido[4,3-d]pyrimidin-6(5H)-yl)-2-methylpropanoic acid], the EC50 in test [2] is more than 1000 nM; in test [3], 100 to 1000 nM; in test [4], more than 1000 nM.

In the case of `O=C(O)CCN1CCc2nc(-c3ccc(OCc4ccccc4)cc3)ccc2C1` [Compound 129, 3-(2-(4-(benzyloxy)phenyl)-7,8-dihydro-1,6-naphthyridin-6(5H)-yl)propanoic acid], the EC50 was more than 1000 nM in test [2], 100 to 1000 nM in test [3] and more than 1000 nM in test [4].

Turning to `O=C(O)CCN1Cc2ccc(-c3ccc(OCc4ccccc4)cc3)nc2C1` [Compound 202, 3-(2-(4-(benzyloxy)phenyl)-5H-pyrrolo[3,4-b]pyridin-6(7H)-yl)propanoic acid], the results for the EC50 in test [2], in test [3] and in test [4] were more than 1000 nM, 1000 to 10000 nM and more than 1000 nM, respectively.

As for `O=C(O)CCN1CCc2nc(-c3ccc(OCc4ccccc4)c(F)c3)ccc2C1` [Compound 137, 3-(2-(4-(benzyloxy)-3-fluorophenyl)-7,8-dihydro-1,6-naphthyridin-6(5H)-yl)propanoic acid], the EC50 in test [2] was more than 1000 nM; in test [3] it was 100 to 1000 nM; in test [4], more than 1000 nM.

With `CC(CC(=O)O)N1Cc2ccc(-c3ccc(OCc4ccccc4)cc3)nc2C1` (centres unmarked) [Compound 200, 3-(2-(4-(benzyloxy)phenyl)-5H-pyrrolo[3,4-b]pyridin-6(7H)-yl)butanoic acid], the EC50 in test [2] is more than 1000 nM; in test [3], 1000 to 10000 nM; in test [4], more than 1000 nM.

`O=C(O)CCN1CCc2nc(-c3ccc(OCc4ccccc4F)cc3)ccc2C1` [Compound 132, 3-(2-(4-((2-fluorobenzyl)oxy)phenyl)-7,8-dihydro-1,6-naphthyridin-6(5H)-yl)propanoic acid]: the EC50 in test [2] was more than 1000 nM; in test [3], less than 100 nM; in test [4], more than 1000 nM.
